Data set [1] concerns the target Replicase polyprotein 1ab (Severe acute respiratory syndrome coronavirus 2, UniProt P0DTD1). In words: Inhibition of 6His-tagged SARS-CoV-2 3CLpro using Dabcyl-KNSTLQSGLRKE-Edans as substrate preincubated for 60 mins followed by substrate addition by FRET assay.
Data set [2] has as its target Procathepsin L (Homo sapiens, UniProt P07711). In words: Inhibition of CTSL (unknown origin) incubated for 2 hrs.
A short description of data set [3]: Metabolic stability in mouse liver microsomes assessed as hepatic clearance at 1 uM preincubated for 5 mins followed by NADPH addition measured upto 45 mins by LC-MS/MS analysis. Format: ADME, Microsome. As to conditions: time < 50 min. A general note: Liver microsomes are vesicles of endoplasmic reticulum, rich in cytochrome P450 enzymes.
Data set [4] concerns SARS-CoV-2. In words: Antiviral activity against SARS-CoV-2 infected in human Huh-7 cells transfected with viral replicon incubated for 1 day. The settings on record: Severe acute respiratory syndrome coronavirus 2, Huh-7, 24 h; for EC90: time 1 day. Format: functional, organism-based. For orientation: A replicon is a self-replicating genome or part of one, used to study replication in cells.

Data set [5] in a line: AUC (0 to infinity) in ICR mouse at 20 mg/kg, po measured for 24 hrs by LC-MS/MS analysis. Type of data set: ADME, organism-based. The settings on record: in vivo.
Data set [6] in a line: AUC (0 to t) in ICR mouse at 20 mg/kg, po measured for 24 hrs by LC-MS/MS analysis. Format: ADME, organism-based. As to conditions: in vivo.
Data set [7] deals with Cathepsin B (Homo sapiens, UniProt P07858). In words: Inhibition of CTSB (unknown origin) incubated for 2 hrs.
Data set [8] can be described thus: Oral bioavailability in ICR mouse at 20 mg/kg measured for 24 hrs by LC-MS/MS analysis. As to conditions: in vivo. Type of data set: ADME, organism-based.
A short description of data set [9]: Half life in ICR mouse at 10 mg/kg, iv measured for 24 hrs by LC-MS/MS analysis. The settings on record: in vivo. Type of data set: ADME, organism-based.
Data set [10] in a line: Metabolic stability in mouse liver microsomes assessed as half life at 1 uM preincubated for 5 mins followed by NADPH addition measured upto 45 mins by LC-MS/MS analysis. Format: ADME, Microsome. As to conditions: time < 50 min.
Data set [11] can be described thus: AUC (0 to infinity) in ICR mouse at 10 mg/kg, iv measured for 24 hrs by LC-MS/MS analysis. The settings on record: in vivo. Format: ADME, organism-based.
Data set [12] in a line: AUC (0 to t) in ICR mouse at 10 mg/kg, iv measured for 24 hrs by LC-MS/MS analysis. Format: ADME, organism-based. The settings on record: in vivo.
Data set [13] can be described thus: Half life in ICR mouse at 20 mg/kg, po measured for 24 hrs by LC-MS/MS analysis. Format: ADME, organism-based. As to conditions: in vivo.
A short description of data set [14]: Cytotoxicity against human Huh-7 cells assessed as cell viability by Cell Titer Glo assay. Type of data set: toxicity, cell-based. (In general: In ATP-based viability assays light output follows the ATP content of the culture.)
Data set [15] in a line: Metabolic stability in human liver microsomes assessed as half life at 1 uM preincubated for 5 mins followed by NADPH addition measured upto 45 mins by LC-MS/MS analysis. The settings on record: time < 50 min. Format: ADME, Microsome.
Data set [16] is described as follows: Metabolic stability in human liver microsomes assessed as hepatic clearance at 1 uM preincubated for 5 mins followed by NADPH addition measured upto 45 mins by LC-MS/MS analysis. Type of data set: ADME, Microsome. As to conditions: time < 50 min.
Data set [17] can be described thus: Cmax in ICR mouse at 20 mg/kg, po measured for 24 hrs by LC-MS/MS analysis. Type of data set: ADME, organism-based. As to conditions: in vivo.

Chain of Procathepsin L (P07711 whole entry): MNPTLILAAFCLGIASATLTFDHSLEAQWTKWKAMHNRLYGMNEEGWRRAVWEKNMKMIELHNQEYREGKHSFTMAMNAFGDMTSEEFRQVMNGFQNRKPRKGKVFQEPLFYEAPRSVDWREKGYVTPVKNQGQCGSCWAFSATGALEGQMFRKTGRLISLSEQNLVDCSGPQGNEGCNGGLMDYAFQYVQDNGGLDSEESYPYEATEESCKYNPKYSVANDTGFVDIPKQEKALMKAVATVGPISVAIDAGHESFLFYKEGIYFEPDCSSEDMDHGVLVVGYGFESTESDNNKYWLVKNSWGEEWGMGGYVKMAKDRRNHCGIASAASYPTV

In turn, `CN(C(=O)[C@@H](NC(=O)OC(C)(C)C)C1CC1)[C@H](CSCc1ccccc1)C(=O)N1C[C@]2(C[C@H]1C#N)C(=O)Nc1ccccc12` gave an IC50 in data set [1] of 674 nM.

For the molecule `CC(C)(F)C(=O)N[C@H](C(=O)N[C@@H](CSCc1ccccc1)C(=O)N1C[C@]2(C[C@H]1C#N)C(=O)Nc1ccccc12)C1CC1`, it took 97 nM to reach half-maximal inhibition in data set [1] (IC50).

On to `CC(C)(C)[C@H](NC(=O)C(F)(F)F)C(=O)N1C[C@H]2[C@@H]([C@H]1C(=O)N1C[C@]3(CC1C#N)C(=O)Nc1ccccc13)C2(C)C` (stereo not given in full), for which, in data set [1], inhibition was half-maximal at 248 nM (IC50).

With `CN(C(=O)[C@@H](NC(=O)C(F)(F)F)C1CC1)[C@@H](Cc1ccc(F)cc1)C(=O)N1C[C@]2(C[C@H]1C#N)C(=O)Nc1ccccc12`, the IC50 worked out at 20200 nM in data set [2], 20700 nM in [7] and 21 nM in data set [1]. The values for the CLhep predicted at 1 µM in data set [3] and in [16] were 40.8 mL/min/kg and 18.3 mL/min/kg, respectively. In data set [4], the response was half-maximal at 5 nM (EC50). This molecule also had a concentration for an effect of 90% (EC90) in [4] of 39 nM. In addition, the values for the total exposure AUC(0-inf) in [5] and in data set [11] were 1110 ng·h/mL and 3420 ng·h/mL, respectively. The AUC(0-t) at 24 h was 1110 ng·h/mL in [6] and 3420 ng·h/mL in data set [12]. Besides, in data set [8], the bioavailability amounted to 16.2%. The half-life in data set [9] is 1.99 h; in data set [13], 2.58 h. Moreover, the values for the half-life at 1 µM in [10] and in data set [15] were 1.25 h and 0.207 h, respectively. The CC50 in [14] is above 5000 nM. The molecule also displayed a peak concentration (Cmax) in data set [17] of 1360 ng/mL.

The molecule `CC(C)(C)[C@H](NC(=O)C(F)(F)F)C(=O)N1C[C@H]2[C@@H]([C@H]1C(=O)N[C@H](C#N)C[C@@H]1CCNC1=O)C2(C)C` came in with a 90% effect concentration (EC90) in data set [4] of 186 nM. Besides, the half-life at 1 µM in [10] amounted to 1.17 h; in data set [15], 0.91 h. For the same molecule, the half-maximal cytotoxic concentration (CC50) in data set [14] is above 5000 nM. Besides, the CLhep predicted at 1 µM in data set [16] is 12.7 mL/min/kg.

In [1], `CC(C)(F)C(=O)N[C@H](C(=O)N[C@@H](COCc1ccccc1)C(=O)N1C[C@]2(C[C@H]1C#N)C(=O)Nc1ccccc12)C1CC1` yielded a 50% inhibitory concentration (IC50) of 80 nM.

With `CC(C)C[C@H](NC(=O)[C@H]1C[C@@H]1C(=O)O)C(=O)NCCCCNC(=N)N`, the IC50 in data set [2] is 56.2 nM; in data set [7] it was 41.4 nM.

Turning to `CN(C(=O)[C@@H](NC(=O)C(F)(F)F)C1CC1)[C@@H](CSCc1ccccc1)C(=O)N1C[C@]2(C[C@H]1C#N)C(=O)Nc1ccccc12`, the CLhep predicted at 1 µM in [3] was 84.9 mL/min/kg. In addition, in data set [10], the half-life at 1 µM was 0.0617 h. Moreover, in data set [1], the IC50 was 40 nM.

With `N#C[C@@H]1C[C@@]2(CN1C(=O)[C@@H](CSCc1ccc(F)cc1)NC(=O)[C@@H](NC(=O)C(F)(F)F)C1CC1)C(=O)Nc1ccccc12`, the figures for the CLhep predicted at 1 µM in [3] and in data set [16] were 36.8 mL/min/kg and 8.8 mL/min/kg, respectively. The molecule also registered an EC50 in data set [4] of 31 nM. The molecule further registered a concentration for an effect of 90% (EC90) in data set [4] of 286 nM. In addition, the figures for the AUC(0-inf) in [5] and in data set [11] were 972 ng·h/mL and 2130 ng·h/mL, respectively. Also, the AUC(0-t) at 24 h was 970 ng·h/mL in data set [6] and 2120 ng·h/mL in [12]. The molecule further had a bioavailability in data set [8] of 22.9%. The half-life is 0.47 h in data set [9] and 1.05 h in data set [13]. Moreover, the half-life at 1 µM stood at 1.5 h in data set [10] and 1.93 h in data set [15]. The CC50 in data set [14] was above 5000 nM. Besides, half-maximal inhibition in [1] (IC50) was put at 25 nM. The molecule further had a Cmax in [17] of 1530 ng/mL.

In turn, `CN(C(=O)[C@@H](NC(=O)OC(C)(C)C)C1CC1)[C@@H](CSCc1ccccc1)C(=O)N1C[C@]2(C[C@H]1C#N)C(=O)Nc1ccccc12` displayed a half-inhibitory concentration (IC50) in data set [1] of 38 nM.

As to `CC1(C)[C@@H]2[C@@H](C(=O)N3C[C@]4(C[C@H]3C#N)C(=O)Nc3ccccc34)N(C(=O)[C@@H](NC(=O)C(F)(F)F)C3CC3)C[C@@H]21`, in [1], the concentration for half-maximal inhibition (IC50) was found to be 886 nM.

`N#C[C@@H]1C[C@@]2(CN1C(=O)[C@H](CSCc1ccccc1)NC(=O)[C@@H](NC(=O)C(F)(F)F)C1CC1)C(=O)Nc1ccccc12`: in data set [1], it took 298 nM to reach half-maximal inhibition (IC50).

As to `CN(C(=O)[C@@H](NC(=O)C(C)(C)F)C1CC1)[C@@H](CSCc1ccccc1)C(=O)N1C[C@]2(C[C@H]1C#N)C(=O)Nc1ccccc12`, the CLhep predicted at 1 µM in data set [3] was 85.1 mL/min/kg. Besides, the half-life at 1 µM in [10] was found to be 0.06 h. Half-maximal inhibition in data set [1] (IC50) was put at 43 nM.

In [1], `CN(C(=O)[C@@H](NC(=O)C(F)(F)F)C1CC1)[C@@H](CS(=O)(=O)Cc1ccccc1)C(=O)N1C[C@]2(C[C@H]1C#N)C(=O)Nc1ccccc12` had an IC50 of 94 nM.

Regarding `CN(C(=O)[C@@H](NC(=O)C(C)(C)F)C1CC1)[C@@H](COCc1ccccc1)C(=O)N1C[C@]2(C[C@H]1C#N)C(=O)Nc1ccccc12`, the CLhep predicted at 1 µM in data set [3] was 83.6 mL/min/kg. Also, the half-life at 1 µM in [10] amounted to 0.0783 h. This molecule yielded a 50% inhibitory concentration (IC50) in data set [1] of 53 nM.

In [1], `CC(C)(C)OC(=O)N[C@H](C(=O)N[C@@H](CSCc1ccccc1)C(=O)N1C[C@]2(C[C@H]1C#N)C(=O)Nc1ccccc12)C1CC1` had a half-inhibitory concentration (IC50) of 47 nM.

With `N#C[C@@H]1C[C@@]2(CN1C(=O)[C@H](CS(=O)(=O)Cc1ccccc1)NC(=O)[C@@H](NC(=O)C(F)(F)F)C1CC1)C(=O)Nc1ccccc12`, in data set [1], half-maximal inhibition (IC50) required 1300 nM.

By IC50 is commonly meant the concentration needed to halve the response being measured. A higher IC50 goes with lower potency. For orientation: EC50 means the concentration that produces a half-maximal response. A higher EC50 goes with a need for much substance. Usually EC90 stands for the concentration at which the effect reaches the 90% level. A low value points to greater potency. A word on the AUC(0-inf): it is the area under the concentration-time curve extrapolated to infinity. Lower therefore signals low exposure. Broadly, the AUC(0-t) is the area under the concentration-time curve up to a stated or last time point. For orientation: bioavailability means the share of a dose that reaches the circulation, judged against a reference dose that is usually intravenous. A higher bioavailability goes with good availability. What is called half-life is the time needed for the level to fall by half in the phase considered. In general, CC50 refers to the concentration that lowers cell viability or growth by half. What is called Cmax is the maximum level reached in the sampled fluid or tissue.

The values are drawn from ChEMBL document CHEMBL6087408, “Discovery of peptidomimetic spiropyrrolidine derivatives as novel 3CLpro inhibitors against SARS-CoV -2” (Eur J Med Chem, 2025).
